{
  "source": "patent US20250032490A1",
  "about": "“THERAPEUTIC REGIMENS FOR TREATMENT OF PAROXYSMAL NOCTURNAL HEMOGLOBINURIA” (Achillion Pharmaceuticals, Inc., priority 2017, published 2025)",
  "test_system": "rabbit erythrocytes",
  "test": "CAP-mediated hemolysis assay with rabbit erythrocytes",
  "assay_type": "cell-based",
  "details": "Oryctolagus cuniculus, Erythrocyte; for inhibition at 0.00234 µM: Compound 1 0.00234 μM; for inhibition at 0.00469 µM: Compound 1 0.00469 μM; for inhibition at 0.00938 µM: Compound 1 0.00938 μM; for inhibition at 0.0188 µM: Compound 1 0.0188 μM; for inhibition at 0.0375 µM: Compound 1 0.0375 μM; for inhibition at 0.075 µM: Compound 1 0.075 μM; for inhibition at 0.15 µM: Compound 1 0.15 μM; for inhibition at 0.75 µM: Compound 1 0.75 μM",
  "experimental": "Inhibition was analyzed by the method of Prichard and Shipman (Prichard, M. N. and C. Shipman, Jr. A Three-Dimensional Model to Analyze Drug-Drug Interactions. Antiviral Research 1990, 14:181-205) Three-dimensional surface graphs of each experiment were generated and analyzed using an Excel spreadsheet program adapted from the MacSynergy II spreadsheet (University of Alabama, Birmingham, AL). The X-axis and Y-axis of each surface graph represent the concentrations of the two test compounds, and the Z-axis represents the difference between measured inhibition and a theoretically determined additive inhibition. For an additive relationship, the surface graph resembles a horizontal plane at Z=0, whereas positive surface peaks indicate greater inhibition than expected and therefore synergy, and negative surface peaks indicate less inhibition than expected and therefore antagonism.\nSynergy and antagonism volumes were calculated separately as the summed volumes of peaks respectively above and below the Z=0 plane. Volumes were determined using 95% confidence limits to assure significance.\nInhibition was analyzed by the method of Chou and Talalay (Chou, T.-C. and P. Talalay. Analysis of Combined Drug Effects: A New Look at a Very Old Problem. Trends Pharmacol. Sci. 1983, 4:450-454; Chou, T. C. Theoretical basis, experimental design, and computerized simulation of synergism and antagonism in drug combination studies. Pharmacological Reviews 2006, 58:621-681). Analysis using the median-effect equation of Chou and Talalay was performed with CompuSyn software (ComboSyn, Inc, Paramus, NJ). […] Three constant ratios were analyzed in each experiment, centered approximately at the ratio of the individual IC50 values for the two compounds and ranging two-fold higher and lower. […] Combination index (CI) values were determined at inhibition values of 50%, 75%, and 90%. Interactions were considered additive for CI values between 0.9 and 1.1. […] Interactions were considered slightly antagonistic for CI values between 1.1 and 1.2, moderately antagonistic for CI values between 1.2 and 1.45; antagonistic for CI values between 1.45 and 3.3, and strongly antagonistic for CI values between 3.3 and 10.\nCompstatin was obtained from Tocris Bioscience (Bristol, UK). The murine monoclonal antibody to human C5, isotype IgGIK, was obtained as product number A217 from Quidel (San Diego, CA). FUT-175 (nafamostat) was obtained from Calbiochem EMD Millipore (Billerica, MA).\nAnti-C5 (murine monoclonal antibody to human C5, isotype IgGIK, product No. A217 from Quidel, San Diego, CA) was obtained as a 1.1 mg/mL stock in buffered saline. Gelatin veronal buffer (GVB) without Ca^++ and Mg (GVB^0), 100 mM MgCl2+100 mM EGTA (MgEGTA), normal human serum (NHS), and 5×10^8/mL rabbit erythrocytes (Er) were obtained from Complement Technology Inc. (Tyler, TX).\nGVB^0·MgEGTA was prepared by mixing GVB^0 and 100 mM MgEGTA in a 9:1 ratio. Er cells were used within two weeks of purchase; before each assay cells were collected by centrifugation at 800×g and 4° C. for 3 minutes and the buffer was replaced with equal volume fresh cold GVB^0·MgEGTA.\nEach of the 64 possible combinations of compounds at varying concentrations was tested in duplicate or triplicate wells. […] 50 μL GVB^0·MgEGTA was added to each well, followed by 50 μL 20% NHS in GVB^0·MgEGTA. The plates were sealed, mixed on a microtiter plate shaker, and incubated at 37° C. for 15 minutes. 20 μL Er was then added to each well and the plates were sealed, mixed, and incubated at 37° C. for 30 minutes with an added shaking at 15 minutes. The following controls were each included in quadruplicate: 2.4 μL DMSO+120 μL GVB^0·MgEGTA (representing background signal); 2.4 μL DMSO+100 μL GVB^0·MgEGTA+20 μL Er (no serum, representing 0% CAP-mediated lysis); 2.4 μL DMSO+50 μL GVB^0·MgEGTA+50 μL 20% NHS+20 μL Er (no compound, representing 100% CAP-mediated lysis); and 2.4 μL DMSO+100 μL H2O+20 μL Er (osmotic lysis, representing maximal lysis). […]",
  "key": {"[1]": {"details": "Experiment 2, Compstatin 0-30 μM"}, "[2]": {"details": "Experiment 3, Compstatin 0-30 μM"}, "[3]": {"details": "Experiment 4, Compstatin 0-30 μM"}},
  "data": [
    {"smiles": "CC(=O)c1nn(CC(=O)N2C[C@H](F)C[C@H]2C(=O)Nc2cccc(Br)n2)c2ccc(-c3cnc(C)nc3)cc12", "note": "[Compound 1, (2S,4R)-1-(2-(3-acetyl-5-(2-methylpyrimidin-5-yl)-1H-indazol-1-yl)acetyl)-N-(6-bromopyridin-2-yl)-4-fluoropyrrolidine-2-carboxamide]", "values": [
      {"measurement": "inhibition at 0.00234 µM", "setting": "[1]", "result": 0, "unit": "%"},
      {"measurement": "inhibition at 0.00234 µM", "setting": "Experiment 2, FUT-175 0-40 μM", "result": 5, "unit": "%"},
      {"measurement": "inhibition at 0.00469 µM", "setting": "[1]", "result": 0, "unit": "%"},
      {"measurement": "inhibition at 0.00469 µM", "setting": "Experiment 2, FUT-175 0-40 μM", "result": 7, "unit": "%"},
      {"measurement": "inhibition at 0.00938 µM", "setting": "[1]", "result": 3.2, "unit": "%"},
      {"measurement": "inhibition at 0.00938 µM", "setting": "Experiment 2, FUT-175 0-40 μM", "result": 13, "unit": "%"},
      {"measurement": "inhibition at 0.0188 µM", "setting": "[1]", "result": 16, "unit": "%"},
      {"measurement": "inhibition at 0.0188 µM", "setting": "Experiment 2, FUT-175 0-40 μM", "result": 31, "unit": "%"},
      {"measurement": "inhibition at 0.0375 µM", "setting": "[1]", "result": 45, "unit": "%"},
      {"measurement": "inhibition at 0.0375 µM", "setting": "Experiment 2, FUT-175 0-40 μM", "result": 70, "unit": "%"},
      {"measurement": "inhibition at 0.075 µM", "setting": "[1]", "result": 72, "unit": "%"},
      {"measurement": "inhibition at 0.15 µM", "setting": "[1]", "result": 91, "unit": "%"},
      {"measurement": "inhibition at 0.15 µM", "setting": "Experiment 2, FUT-175 0-40 μM", "result": 98, "unit": "%"},
      {"measurement": "inhibition at 0.75 µM", "setting": "Experiment 2, FUT-175 0-40 μM", "result": 95, "unit": "%"},
      {"measurement": "inhibition at 0.00234 µM", "setting": "[2]", "result": 3, "unit": "%"},
      {"measurement": "inhibition at 0.00234 µM", "setting": "Experiment 3, FUT-175 0-40 μM", "result": 11, "unit": "%"},
      {"measurement": "inhibition at 0.00469 µM", "setting": "[2]", "result": 7.7, "unit": "%"},
      {"measurement": "inhibition at 0.00469 µM", "setting": "Experiment 3, FUT-175 0-40 μM", "result": 17, "unit": "%"},
      {"measurement": "inhibition at 0.00938 µM", "setting": "[2]", "result": 22, "unit": "%"},
      {"measurement": "inhibition at 0.00938 µM", "setting": "Experiment 3, FUT-175 0-40 μM", "result": 32, "unit": "%"},
      {"measurement": "inhibition at 0.0188 µM", "setting": "[2]", "result": 41, "unit": "%"},
      {"measurement": "inhibition at 0.0188 µM", "setting": "Experiment 3, FUT-175 0-40 μM", "result": 54, "unit": "%"},
      {"measurement": "inhibition at 0.037 µM", "setting": "Experiment 3, Compound 1 0.037 μM, FUT-175 0-40 μM", "result": 94, "unit": "%"},
      {"measurement": "inhibition at 0.0375 µM", "setting": "[2]", "result": 73, "unit": "%"},
      {"measurement": "inhibition at 0.075 µM", "setting": "[2]", "result": 96, "unit": "%"},
      {"measurement": "inhibition at 0.15 µM", "setting": "[2]", "result": 98, "unit": "%"},
      {"measurement": "inhibition at 0.15 µM", "setting": "Experiment 3, FUT-175 0-40 μM", "result": 98, "unit": "%"},
      {"measurement": "inhibition at 0.75 µM", "setting": "Experiment 3, FUT-175 0-40 μM", "result": 98, "unit": "%"},
      {"measurement": "inhibition at 0.00234 µM", "setting": "[3]", "result": 0.8, "unit": "%"},
      {"measurement": "inhibition at 0.00469 µM", "setting": "[3]", "result": 7.1, "unit": "%"},
      {"measurement": "inhibition at 0.00938 µM", "setting": "[3]", "result": 20, "unit": "%"},
      {"measurement": "inhibition at 0.0188 µM", "setting": "[3]", "result": 41, "unit": "%"},
      {"measurement": "inhibition at 0.0375 µM", "setting": "[3]", "result": 81, "unit": "%"},
      {"measurement": "inhibition at 0.075 µM", "setting": "[3]", "result": 97, "unit": "%"},
      {"measurement": "inhibition at 0.15 µM", "setting": "[3]", "result": 99, "unit": "%"},
      {"measurement": "inhibition at 0.00234 µM", "setting": "Experiment #1, FUT-175 0-40 μM", "result": 4.5, "unit": "%"},
      {"measurement": "inhibition at 0.00469 µM", "setting": "Experiment #1, FUT-175 0-40 μM", "result": 8.3, "unit": "%"},
      {"measurement": "inhibition at 0.0093 µM", "setting": "Experiment #1, Compound 1 0.0093 μM, FUT-175 0-40 μM", "result": 16, "unit": "%"},
      {"measurement": "inhibition at 0.0188 µM", "setting": "Experiment #1, FUT-175 0-40 μM", "result": 31, "unit": "%"},
      {"measurement": "inhibition at 0.0234 µM", "setting": "Experiment #1, Compound 1 0.0234 μM, Compstatin 0-30 μM", "result": 27, "unit": "%"},
      {"measurement": "inhibition at 0.0375 µM", "setting": "Experiment #1, FUT-175 0-40 μM", "result": 44, "unit": "%"},
      {"measurement": "inhibition at 0.0469 µM", "setting": "Experiment #1, Compound 1 0.0469 μM, Compstatin 0-30 μM", "result": 44, "unit": "%"},
      {"measurement": "inhibition at 0.0938 µM", "setting": "Experiment #1, Compound 1 0.0938 μM, Compstatin 0-30 μM", "result": 75, "unit": "%"},
      {"measurement": "inhibition at 0.15 µM", "setting": "Experiment #1, FUT-175 0-40 μM", "result": 96, "unit": "%"},
      {"measurement": "inhibition at 0.188 µM", "setting": "Experiment #1, Compound 1 0.188 μM, Compstatin 0-30 μM", "result": 91, "unit": "%"},
      {"measurement": "inhibition at 0.375 µM", "setting": "Experiment #1, Compound 1 0.375 μM, Compstatin 0-30 μM", "result": 98, "unit": "%"},
      {"measurement": "inhibition at 0.75 µM", "setting": "Experiment #1, Compstatin 0-30 μM", "result": 98, "unit": "%"},
      {"measurement": "inhibition at 0.75 µM", "setting": "Experiment #1, FUT-175 0-40 μM", "result": 79, "unit": "%"},
      {"measurement": "inhibition at 1.5 µM", "setting": "Experiment #1, Compound 1 1.5 μM, Compstatin 0-30 μM", "result": 98, "unit": "%"}
    ]}
  ]
}
